The target in one data set is T1, HER2 INS YVMA (Homo sapiens, UniProt P04626, INS775YVMA).
T1 construct: purchased DPF
As to the kind of experiment: Lance Kinase Activity Assay, HER2 INS YVMA (Her2 Exon 20 INSYVMA Lance). The data set is classed as biochemical. Particulars: biochemical Lance assay. A digest of the protocol:
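Kinase phosphorylates a ULight-labelled peptide substrate; Eu anti-phospho antibody gives TR-FRET (ex 340 nm, em 665/615 nm). Compounds in 1:3 serial dilution over 8 steps, reaction started with ATP, 1 h at room temperature, stopped with EDTA-containing detection mix for 1 h. IC50 from sigmoidal dose-response curves.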

Data set [1] deals with Her2 Exon 20 INSYVMA Ba/F3 (Homo sapiens, UniProt P04626, DUP772-775, cells depend on it). As to the kind of experiment: Her2 Exon 20 INSYVMA Ba/F3 CellTiter-Glo. The data set is classed as cell-based. Particulars: CellTiter-Glo, 72 h, read-out: Her2 Exon 20 INSYVMA Ba/F3 CTG IC50. A digest of the protocol:
(§1)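 Ba/F3 cells were seeded, left 24 h at 37 °C/5% CO2, then exposed to compound dilutions in DMSO for 72 h. Viability was read as ATP luminescence (CellTiter-Glo) and IC50 fitted from dose–response curves; DMSO and 10 μM staurosporine defined the controls, and plates needed Z′ ≥0.5.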

Data set [2] deals with EGFR Exon 20 INSNPH Ba/F3 (Homo sapiens, UniProt P00533, DUP771-773, cells depend on it). Nature of the data set: EGFR Exon 20 INSNPH Ba/F3 CellTiter-Glo. The data set is classed as cell-based. The settings on record: CellTiter-Glo, 72 h, read-out: EGFR Exon 20 INSNPH Ba/F3 CTG IC50. In a few lines:
as §1

A further data set has as its target EGFR T790ML858R (Homo sapiens, UniProt P00533, L858R/T790M). Nature of the data set: EGFR T790ML858R Lance assay. The data set is classed as biochemical. The procedure:
(§2) Inhibition is indicated as […] [nM] (“−”=not measured). Compounds having an activity designated as “A” provided an IC50≤100 nM; compounds having an activity designated as “B” provided an 100 nM<IC50≤500 nM; compounds having an activity designated as “C” provided an 500 nM<IC50≤1000 nM; compounds having an activity designated as “D” provided an 1000 nM<IC50≤100000 nM; and compounds having an activity designated as “E” provided an IC50>10000 nM.

The next data set addresses EGFR wt (Homo sapiens, UniProt P00533). Nature of the data set: EGFR wt Lance assay. The data set is classed as biochemical. The procedure: as §2
Another data set relates to H1975. Nature of the data set: H1975 CellTiter-Glo. The data set is classed as cell-based. The settings on record: Homo sapiens, NCI-H1975; 72 h compound incubation; read-out: H1975 CTG IC50. A digest of the protocol:
(§3)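 Antiproliferative IC50 values come from a 72 h treatment of cultured cells, measured by CellTiter-Glo ATP luminescence. Only runs with a Z′-factor of at least 0.5, calculated from 16 vehicle and 16 Staurosporine (10 μM) control wells, are reported.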

Another data set deals with H1781. As to the kind of experiment: H1781 CellTiter-Glo. The data set is classed as cell-based. Particulars: NCI-H1781; 72 h compound incubation; read-out: H1781 CTG IC50. A digest of the protocol: as §3
The subject of the next data set is A431. As to the kind of experiment: A431 CellTiter-Glo. Type of data set: cell-based. The settings on record: Homo sapiens, A-431; 72 h compound incubation; read-out: A431 CTG IC50. In a few lines: as §3
Data set [3] in a line: Metabolic stability in mouse liver microsomes without cofactor NADPH. The settings on record: 3 μM test compound, mouse liver microsomes, without NADPH, 50 min, 37° C., LC-MS/MS. The data set is classed as in vitro ADME. A digest of the protocol:
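Test compound (3 μM) was incubated with mouse liver microsomes without NADPH at 37° C. Depletion was followed by LC-MS/MS over time up to 50 min.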

Data on eleven molecules can be found in US20220370440A1 (Lead Discovery Center GmbH, priority 2018, published 2022).

EGFR Exon 20 INSNPH Ba/F3, sequence (P00533 with tags, fused parts or gaps DUP771-773): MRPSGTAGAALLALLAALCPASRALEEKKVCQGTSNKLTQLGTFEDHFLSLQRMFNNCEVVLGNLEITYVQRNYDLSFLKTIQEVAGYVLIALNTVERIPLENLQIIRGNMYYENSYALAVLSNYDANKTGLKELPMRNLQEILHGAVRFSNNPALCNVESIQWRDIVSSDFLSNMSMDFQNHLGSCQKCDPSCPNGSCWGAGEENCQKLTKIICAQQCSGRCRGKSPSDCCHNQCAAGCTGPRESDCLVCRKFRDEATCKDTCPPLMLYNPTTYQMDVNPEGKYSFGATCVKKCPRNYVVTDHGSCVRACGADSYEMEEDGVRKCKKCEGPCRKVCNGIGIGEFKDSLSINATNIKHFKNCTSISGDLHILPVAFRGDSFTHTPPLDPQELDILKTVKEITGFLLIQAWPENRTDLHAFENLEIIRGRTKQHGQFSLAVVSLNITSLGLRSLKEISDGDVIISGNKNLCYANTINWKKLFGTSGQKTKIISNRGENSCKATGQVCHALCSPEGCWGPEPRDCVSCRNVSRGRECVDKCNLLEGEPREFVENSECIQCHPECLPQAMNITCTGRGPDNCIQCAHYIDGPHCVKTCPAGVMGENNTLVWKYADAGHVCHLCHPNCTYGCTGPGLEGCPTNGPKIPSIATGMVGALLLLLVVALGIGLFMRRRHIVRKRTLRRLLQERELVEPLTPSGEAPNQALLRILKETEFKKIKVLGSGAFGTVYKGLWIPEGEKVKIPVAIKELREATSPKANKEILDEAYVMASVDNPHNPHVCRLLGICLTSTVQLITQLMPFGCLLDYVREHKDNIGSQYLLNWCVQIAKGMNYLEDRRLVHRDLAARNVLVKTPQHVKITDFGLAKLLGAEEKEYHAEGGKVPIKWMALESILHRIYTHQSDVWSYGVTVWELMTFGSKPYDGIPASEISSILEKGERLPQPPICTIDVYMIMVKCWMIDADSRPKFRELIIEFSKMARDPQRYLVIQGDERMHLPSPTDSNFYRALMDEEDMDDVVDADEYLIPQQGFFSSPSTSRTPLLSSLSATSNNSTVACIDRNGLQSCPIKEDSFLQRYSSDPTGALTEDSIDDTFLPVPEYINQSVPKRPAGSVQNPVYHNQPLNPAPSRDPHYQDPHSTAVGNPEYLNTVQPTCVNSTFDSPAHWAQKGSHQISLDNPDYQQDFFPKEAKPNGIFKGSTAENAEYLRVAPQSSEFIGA
EGFR wt, sequence (P00533 25-1210): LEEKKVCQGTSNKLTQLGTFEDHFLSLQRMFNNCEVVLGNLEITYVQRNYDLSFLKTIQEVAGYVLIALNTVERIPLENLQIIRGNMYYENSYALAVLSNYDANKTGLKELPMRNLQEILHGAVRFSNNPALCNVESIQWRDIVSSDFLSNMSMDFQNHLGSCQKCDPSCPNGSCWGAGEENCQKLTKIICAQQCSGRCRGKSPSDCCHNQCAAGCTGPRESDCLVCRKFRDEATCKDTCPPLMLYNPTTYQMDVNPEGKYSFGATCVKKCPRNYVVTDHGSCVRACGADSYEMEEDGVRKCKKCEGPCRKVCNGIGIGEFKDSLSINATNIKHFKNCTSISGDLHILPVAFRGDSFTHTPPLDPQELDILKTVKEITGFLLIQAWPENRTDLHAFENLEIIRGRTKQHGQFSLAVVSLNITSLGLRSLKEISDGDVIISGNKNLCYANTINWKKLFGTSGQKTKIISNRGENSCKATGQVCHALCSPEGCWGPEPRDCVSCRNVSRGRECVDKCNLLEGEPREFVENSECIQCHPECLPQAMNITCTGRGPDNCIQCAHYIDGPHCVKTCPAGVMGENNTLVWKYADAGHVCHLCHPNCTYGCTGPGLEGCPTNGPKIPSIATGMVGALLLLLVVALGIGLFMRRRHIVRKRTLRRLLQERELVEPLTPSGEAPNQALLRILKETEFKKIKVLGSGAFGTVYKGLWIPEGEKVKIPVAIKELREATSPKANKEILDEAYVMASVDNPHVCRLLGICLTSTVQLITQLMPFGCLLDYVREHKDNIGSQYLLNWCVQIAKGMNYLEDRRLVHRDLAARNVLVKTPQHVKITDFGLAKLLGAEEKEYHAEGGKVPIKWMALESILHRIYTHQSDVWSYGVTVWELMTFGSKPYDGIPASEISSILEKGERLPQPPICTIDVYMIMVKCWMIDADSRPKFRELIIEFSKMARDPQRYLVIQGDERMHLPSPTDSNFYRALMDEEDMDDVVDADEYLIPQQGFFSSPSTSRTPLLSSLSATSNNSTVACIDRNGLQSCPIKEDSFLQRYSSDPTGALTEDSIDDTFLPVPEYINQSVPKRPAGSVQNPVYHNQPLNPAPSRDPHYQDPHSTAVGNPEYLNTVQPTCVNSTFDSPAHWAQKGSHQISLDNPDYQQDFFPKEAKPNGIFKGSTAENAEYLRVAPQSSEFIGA
Her2 Exon 20 INSYVMA Ba/F3, sequence (P04626 with tags, fused parts or gaps DUP772-775): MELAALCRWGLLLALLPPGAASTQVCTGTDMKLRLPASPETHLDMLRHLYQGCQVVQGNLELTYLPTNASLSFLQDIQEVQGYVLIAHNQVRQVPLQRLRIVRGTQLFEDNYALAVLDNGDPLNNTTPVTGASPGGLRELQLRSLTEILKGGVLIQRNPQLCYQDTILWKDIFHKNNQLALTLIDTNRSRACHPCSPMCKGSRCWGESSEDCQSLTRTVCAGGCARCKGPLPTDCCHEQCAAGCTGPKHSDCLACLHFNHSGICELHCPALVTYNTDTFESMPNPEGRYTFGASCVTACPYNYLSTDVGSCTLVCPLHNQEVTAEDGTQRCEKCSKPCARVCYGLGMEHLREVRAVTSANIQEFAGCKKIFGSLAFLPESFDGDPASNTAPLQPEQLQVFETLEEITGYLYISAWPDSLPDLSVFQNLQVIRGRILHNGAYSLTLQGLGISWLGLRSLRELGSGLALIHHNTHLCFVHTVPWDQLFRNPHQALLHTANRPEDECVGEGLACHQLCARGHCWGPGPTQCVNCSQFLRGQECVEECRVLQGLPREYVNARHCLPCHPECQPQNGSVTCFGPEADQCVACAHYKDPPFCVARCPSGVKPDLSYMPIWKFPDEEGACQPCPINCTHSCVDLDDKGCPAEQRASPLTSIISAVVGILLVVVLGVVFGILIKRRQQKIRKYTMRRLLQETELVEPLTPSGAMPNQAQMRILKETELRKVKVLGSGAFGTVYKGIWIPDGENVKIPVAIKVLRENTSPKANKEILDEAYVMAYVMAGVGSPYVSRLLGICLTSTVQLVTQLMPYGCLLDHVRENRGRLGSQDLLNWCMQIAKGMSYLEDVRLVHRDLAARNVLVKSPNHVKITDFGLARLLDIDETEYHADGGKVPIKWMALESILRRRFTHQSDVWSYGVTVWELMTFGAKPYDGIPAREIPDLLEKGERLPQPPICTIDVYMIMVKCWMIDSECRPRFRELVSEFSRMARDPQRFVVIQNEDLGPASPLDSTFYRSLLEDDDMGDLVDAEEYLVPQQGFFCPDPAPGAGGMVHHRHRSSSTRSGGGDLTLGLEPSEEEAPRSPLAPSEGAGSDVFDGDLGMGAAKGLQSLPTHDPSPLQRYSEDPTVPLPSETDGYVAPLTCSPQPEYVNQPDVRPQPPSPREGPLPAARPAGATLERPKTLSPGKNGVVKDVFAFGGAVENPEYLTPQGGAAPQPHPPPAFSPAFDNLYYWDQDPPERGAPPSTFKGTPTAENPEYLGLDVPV
EGFR T790ML858R, sequence (P00533 25-1210 T790M/L858R): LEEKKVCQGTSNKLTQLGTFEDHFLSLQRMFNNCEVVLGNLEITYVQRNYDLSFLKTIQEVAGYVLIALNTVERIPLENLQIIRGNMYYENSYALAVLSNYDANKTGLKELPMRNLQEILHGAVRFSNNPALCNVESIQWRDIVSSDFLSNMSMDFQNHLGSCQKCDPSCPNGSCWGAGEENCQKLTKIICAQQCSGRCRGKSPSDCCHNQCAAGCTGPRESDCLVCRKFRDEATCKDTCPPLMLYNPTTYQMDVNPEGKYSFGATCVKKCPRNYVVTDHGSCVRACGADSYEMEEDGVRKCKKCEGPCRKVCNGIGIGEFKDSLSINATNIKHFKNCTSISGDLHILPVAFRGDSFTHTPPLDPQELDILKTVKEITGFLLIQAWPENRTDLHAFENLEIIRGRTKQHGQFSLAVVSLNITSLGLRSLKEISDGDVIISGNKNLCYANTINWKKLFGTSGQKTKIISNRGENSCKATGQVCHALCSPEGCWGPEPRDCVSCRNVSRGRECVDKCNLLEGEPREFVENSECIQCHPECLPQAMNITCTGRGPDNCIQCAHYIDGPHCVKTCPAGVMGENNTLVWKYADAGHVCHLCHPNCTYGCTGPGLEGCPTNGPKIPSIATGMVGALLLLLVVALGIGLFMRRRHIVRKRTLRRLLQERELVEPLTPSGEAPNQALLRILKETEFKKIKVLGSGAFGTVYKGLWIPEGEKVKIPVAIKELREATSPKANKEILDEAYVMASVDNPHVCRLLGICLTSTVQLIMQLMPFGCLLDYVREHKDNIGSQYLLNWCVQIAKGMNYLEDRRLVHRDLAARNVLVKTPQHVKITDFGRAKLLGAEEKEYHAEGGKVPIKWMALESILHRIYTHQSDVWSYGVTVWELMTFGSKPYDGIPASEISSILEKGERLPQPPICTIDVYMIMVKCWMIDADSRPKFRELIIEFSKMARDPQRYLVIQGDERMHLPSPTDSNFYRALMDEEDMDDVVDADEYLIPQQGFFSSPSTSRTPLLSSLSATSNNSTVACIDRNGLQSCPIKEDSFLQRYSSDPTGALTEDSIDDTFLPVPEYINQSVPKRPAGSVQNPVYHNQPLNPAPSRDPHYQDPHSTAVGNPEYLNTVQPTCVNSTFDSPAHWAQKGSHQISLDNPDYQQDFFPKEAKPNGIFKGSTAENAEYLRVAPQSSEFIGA

`C=CC(=O)N1CCc2ccc(-c3c(-c4ccc(CN5CCN(C)CC5)cc4)[nH]c4nccc(Cl)c34)cc21` [Example 60, 1-(6-(4-chloro-2-(4-((4-methylpiperazin-1-yl)methyl)phenyl)-1H-pyrrolo[2,3-b]pyridin-3-yl)indolin-1-yl)prop-2-en-1-one]: the IC50 on HER2 INS YVMA is ≤ 100 nM; on EGFR T790ML858R it was ≤ 100 nM; on EGFR wt it was ≤ 100 nM; with H1975, 100 to 500 nM; in the data set with H1781 it was 500 to 1000 nM; in the data set with A431 it was 500 to 1000 nM. Also, the GI50 in data set [1] and in data set [2] was 100 to 500 nM throughout. Further, in [3], the “Stability in presence of mouse liver microsomes without cofactor NADPH [% remaining after 50 min]” value is >99 % remaining after 50 min.
For the molecule `C=CC(=O)N1CCc2ccc(-c3c(-c4ccc(CN(C)C)cc4)[nH]c4nccc(Cl)c34)cc21` [Example 61, 1-(6-(4-chloro-2-(4-((dimethylamino)methyl)phenyl)-1H-pyrrolo[2,3-b]pyridin-3-yl)indolin-1-yl)prop-2-en-1-one], the 50% inhibitory concentration (IC50) on HER2 INS YVMA was ≤ 100 nM; on EGFR T790ML858R it was ≤ 100 nM; on EGFR wt it was ≤ 100 nM; with H1975 it was ≤ 100 nM; in the data set on H1781, 500 to 1000 nM; in the data set on A431 it was 100 to 500 nM. Also, the GI50 in [1] and in data set [2] was 100 to 500 nM each time. For the same molecule, the “Stability in presence of mouse liver microsomes without cofactor NADPH [% remaining after 50 min]” value in data set [3] was >99 % remaining after 50 min.
For `C=CC(=O)Nc1cc(-c2c(-c3ccc(C4CCN(C)CC4)cc3)[nH]c3nccc(OC)c23)ccc1C` [Example 73, N-(5-(4-methoxy-2-(4-(1-methylpiperidin-4-yl)phenyl)-1H-pyrrolo[2,3-b]pyridin-3-yl)-2-methylphenyl)acrylamide], the 50% inhibitory concentration (IC50) was ≤ 100 nM against HER2 INS YVMA; ≤ 100 nM against EGFR T790ML858R; ≤ 100 nM against EGFR wt; ≤ 100 nM in the data set on H1975; 100 to 500 nM with H1781; 100 to 500 nM with A431. In addition, the GI50 in data set [1] and in data set [2] was ≤ 100 nM throughout. For the same molecule, the “Stability in presence of mouse liver microsomes without cofactor NADPH [% remaining after 50 min]” value in [3] turned out to be 99 % remaining after 50 min.
In the case of `C=CC(=O)Nc1cc(-c2c(-c3ccc(CN4CCOCC4)cc3)[nH]c3nccc(OC)c23)ccc1C` [Example 75, N-(5-(4-methoxy-2-(4-(morpholinomethyl)phenyl)-1H-pyrrolo[2,3-b]pyridin-3-yl)-2-methylphenyl)acrylamide], the concentration for half-maximal inhibition (IC50) at HER2 INS YVMA is ≤ 100 nM; on EGFR T790ML858R it was ≤ 100 nM; against EGFR wt, ≤ 100 nM; in the data set on H1975 it was ≤ 100 nM; in the data set on H1781 it was 100 to 500 nM; in the data set on A431, 100 to 500 nM. The GI50 in data set [1] was 100 to 500 nM; in data set [2] it was ≤ 100 nM. Also, in [3], the “Stability in presence of mouse liver microsomes without cofactor NADPH [% remaining after 50 min]” value is reported as >99 % remaining after 50 min.
As to `C=CC(=O)Nc1cc(-c2c(-c3cccc(CN4CCN(C)CC4)c3)[nH]c3nccc(OC)c23)ccc1C` [Example 76, N-(5-(4-methoxy-2-(3-((4-methylpiperazin-1-yl)methyl)phenyl)-1H-pyrrolo[2,3-b]pyridin-3-yl)-2-methylphenyl)acrylamide], the IC50 against HER2 INS YVMA was ≤ 100 nM; against EGFR T790ML858R, ≤ 100 nM; at EGFR wt, ≤ 100 nM; in the data set with H1975 it was ≤ 100 nM; with H1781, 500 to 1000 nM; with A431, 500 to 1000 nM. The GI50 in data set [1] and in [2] was 100 to 500 nM each time. The “Stability in presence of mouse liver microsomes without cofactor NADPH [% remaining after 50 min]” value in [3] is >99 % remaining after 50 min.
In the case of `C=CC(=O)Nc1cc(-c2c(-c3ccc(CN4CCN(C)CC4)cc3)[nH]c3nccc(OC)c23)ccc1C` [Example 77, N-(5-(4-methoxy-2-(4-((4-methylpiperazin-1-yl)methyl)phenyl)-1H-pyrrolo[2,3-b]pyridin-3-yl)-2-methylphenyl)acrylamide], the 50% inhibitory concentration (IC50) is ≤ 100 nM against HER2 INS YVMA; ≤ 100 nM on EGFR T790ML858R; ≤ 100 nM at EGFR wt; ≤ 100 nM in the data set on H1975; 100 to 500 nM with H1781; 100 to 500 nM in the data set with A431. Besides, the GI50 in [1] and in data set [2] was 100 to 500 nM each time. Further, in data set [3], the “Stability in presence of mouse liver microsomes without cofactor NADPH [% remaining after 50 min]” value was >99 % remaining after 50 min.
In the case of `C=CC(=O)Nc1cc(-c2c(-c3ccc(N4CCN(C)CC4)nc3)[nH]c3ncccc23)ccc1C` [Example 78, N-(2-methyl-5-(2-(6-(4-methylpiperazin-1-yl)pyridin-3-yl)-1H-pyrrolo[2,3-b]pyridin-3-yl)phenyl)acrylamide 2,2,2-trifluoroacetate], the IC50 on HER2 INS YVMA is 100 to 500 nM; against EGFR T790ML858R it was ≤ 100 nM; on EGFR wt, ≤ 100 nM; in the data set with H1975, ≤ 100 nM; in the data set with H1781, 500 to 1000 nM; in the data set on A431 it was 100 to 500 nM. Moreover, the GI50 in data set [1] lay within 100 to 500 nM; in [2] it was 500 to 1000 nM. Further, the “Stability in presence of mouse liver microsomes without cofactor NADPH [% remaining after 50 min]” value in data set [3] was >99 % remaining after 50 min.
Turning to `C=CC(=O)Nc1cc(-c2c(-c3ccc(C4CCN(C)CC4)cc3)[nH]c3ncccc23)ccc1C` [Example 79, N-(2-methyl-5-(2-(4-(1-methylpiperidin-4-yl)phenyl)-1H-pyrrolo[2,3-b]pyridin-3-yl)phenyl)acrylamide], the IC50 against HER2 INS YVMA was ≤ 100 nM; against EGFR T790ML858R, ≤ 100 nM; against EGFR wt it was ≤ 100 nM; in the data set on H1975, ≤ 100 nM; in the data set with H1781 it was 500 to 1000 nM; in the data set with A431, 100 to 500 nM. Also, the GI50 in [1] and in [2] was 100 to 500 nM throughout. The “Stability in presence of mouse liver microsomes without cofactor NADPH [% remaining after 50 min]” value in data set [3] is listed as >99 % remaining after 50 min.
As to `C=CC(=O)N1CCOc2ccc(-c3c(-c4ccc(N5CCN(C)CC5)cc4)[nH]c4nccc(Cl)c34)cc21` [Example 83, 1-(6-(4-chloro-2-(4-(4-methylpiperazin-1-yl)phenyl)-1H-pyrrolo[2,3-b]pyridin-3-yl)-2H-benzo[b][1,4]oxazin-4(3H)-yl)prop-2-en-1-one 2,2,2-trifluoroacetate], the half-maximal inhibitory concentration (IC50) against HER2 INS YVMA was ≤ 100 nM; on EGFR T790ML858R it was ≤ 100 nM; at EGFR wt, ≤ 100 nM; with H1975 it was 100 to 500 nM; in the data set with H1781, 1000 to 100000 nM; in the data set on A431, 1000 to 100000 nM. Moreover, the GI50 in data set [1] and in [2] was 100 to 500 nM throughout. The “Stability in presence of mouse liver microsomes without cofactor NADPH [% remaining after 50 min]” value in data set [3] was >99 % remaining after 50 min.
Regarding `C=CC(=O)N1CCCc2ccc(-c3c(-c4ccc(N5CCN(C)CC5)cc4)[nH]c4nccc(Cl)c34)cc21` [Example 86, 1-(7-(4-chloro-2-(4-(4-methylpiperazin-1-yl)phenyl)-1H-pyrrolo[2,3-b]pyridin-3-yl)-3,4-dihydroquinolin-1(2H)-yl)prop-2-en-1-one 2,2,2-trifluoroacetate], the half-maximal inhibitory concentration (IC50) on HER2 INS YVMA was ≤ 100 nM; on EGFR T790ML858R it was ≤ 100 nM; on EGFR wt it was ≤ 100 nM; with H1975, 100 to 500 nM; with H1781 it was 1000 to 100000 nM; in the data set with A431, 1000 to 100000 nM. In addition, the GI50 in [1] and in [2] was 500 to 1000 nM throughout. The “Stability in presence of mouse liver microsomes without cofactor NADPH [% remaining after 50 min]” value in data set [3] was >99 % remaining after 50 min.
For the molecule `C=CC(=O)Nc1cc(-c2c(-c3ccc(N4CCNCC4)cc3)[nH]c3nccc(Cl)c23)ccc1C` [Example 96, N-(5-(4-chloro-2-(4-(piperazin-1-yl)phenyl)-1H-pyrrolo[2,3-b]pyridin-3-yl)-2-methylphenyl)acrylamide 2,2,2-trifluoroacetate], the IC50 against HER2 INS YVMA was ≤ 100 nM; at EGFR T790ML858R, ≤ 100 nM; on EGFR wt it was ≤ 100 nM; in the data set with H1975 it was ≤ 100 nM; in the data set with H1781 it was 100 to 500 nM; in the data set on A431, 100 to 500 nM. Further, the GI50 in data set [1] and in data set [2] was 100 to 500 nM in each case. Also, in [3], the “Stability in presence of mouse liver microsomes without cofactor NADPH [% remaining after 50 min]” value is 92 % remaining after 50 min.
